Results on 5 compounds are retold here after article PMC9617852, “In vitro and in vivo assessment of the antioxidant potential of isoxazole derivatives” (Scientific Reports, 2022).

The structures appear in SMILES notation. Converted amounts (≈) assume the structure as drawn. Like-named read-outs stand apart in the source and are kept apart here. Marks after values point to notes of the source that are not given here.

Data set [1] concerns Hep3B. Also on record: method as in doi:10.1515/chem-2021-0078. The conditions noted are these: Hep3B cancer cell line; cited from earlier work.
Data set [2] concerns the target T1, porcine pancreatic lipase (Sus scrofa, UniProt P00591).
T1 construct: purchased Alfa Aesar, Sigma-Aldrich, and Frutarom (UK)
T1 sequence (P00591 1-450): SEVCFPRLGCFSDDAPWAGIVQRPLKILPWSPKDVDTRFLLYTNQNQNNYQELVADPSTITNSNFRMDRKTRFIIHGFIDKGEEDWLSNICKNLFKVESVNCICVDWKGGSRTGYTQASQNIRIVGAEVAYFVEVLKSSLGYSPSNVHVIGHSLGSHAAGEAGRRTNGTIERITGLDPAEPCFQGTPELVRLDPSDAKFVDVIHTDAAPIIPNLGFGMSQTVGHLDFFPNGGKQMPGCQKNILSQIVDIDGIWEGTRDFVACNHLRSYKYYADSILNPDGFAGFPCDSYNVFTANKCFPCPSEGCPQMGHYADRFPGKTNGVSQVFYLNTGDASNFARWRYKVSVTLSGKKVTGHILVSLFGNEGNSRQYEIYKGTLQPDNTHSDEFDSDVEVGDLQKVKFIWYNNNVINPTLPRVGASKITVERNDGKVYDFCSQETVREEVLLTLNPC
Put plainly: Porcine pancreatic lipase inhibition assay. Type of data set: biochemical. The conditions noted are these: substrate p-nitrophenyl butyrate, 37 °C, 410 nm; highest concentration 400 µg/ml.
Procedure: Stock solutions of 500 µg/ml were made from each compound in 10% DMSO. From these, a dilution series of five concentrations of 50, 100, 200, 300, and 400 μg/ml were made. A 1 mg/ml stock solution of porcine pancreatic lipase in Tris–HCl buffer was prepared freshly just before use. The substrate, p-nitrophenyl butyrate (PNPB) was prepared by dissolving 20.9 mg in 2 ml acetonitrile. For each working solution, 0.1 ml porcine pancreatic lipase was mixed with 0.2 ml of compound solution from each member of the dilution series. Tris–HCl was added to make the final volume of the working solutions 1 ml, and they were incubated at 37 °C for 15 min. After incubation, 0.1 ml p-nitrophenyl butyrate solution was added to each test tube. The mixture was then incubated for a further 30 min at 37 °C. Pancreatic lipase activity was determined by measuring the hydrolysis of PNPB into p-nitrophenolate at 410 nm, using a UV spectrophotometer. […] Percentage lipase inhibition by compound dilution was calculated with the following equation: Lipaseinhibition%=AB-Ats/AB×100% where, AB is the recorded absorbance of the blank solution, and Ats is the recorded absorbance of the tested sample solution[31].

A short description of data set [3]: DPPH free radical scavenging assay (in vitro antioxidant activity). The conditions noted are these: DPPH in methanol, 30 min in the dark at 25 °C, absorbance 517 nm. The source says:
To determine the antioxidant activities, the 2,2-Diphenyl-1-picrylhydrazyl (DPPH) was used, which is considered one of the most widely used methods for measuring the in vitro antioxidant activity of various chemical compounds. This colorimetric method is accurate, easy to perform, and economical, providing a screening of the general activity of the antioxidants and is based on a stable and synthetic radical, DPPH[15].
When DPPH reacts with an antioxidant compound, its free radical property is lost and its color changes from violet to yellow. The decrease in absorbance at 517 nm induced by antioxidants determines the reduction ability of DPPH.
The free DPPH radical scavenging assay was used to measure the antioxidant activity of the isoxazole derivatives. A 1000 μg/ml stock solution of each compound was prepared in methanol. In addition, a 1000 μg/ml solution of Trolox was also prepared (the reference standard). […] Optical densities were then measured with a spectrophotometer at a wavelength of 517 nm. The following equation was used to calculate % DPPH inhibition for each compound, with Trolox as the standard compound: DPPHinhibition%=AB-Ats/AB×100% where, AB is the recorded absorbance of the blank solution, and Ats is the recorded absorbance of the tested sample solution[25].

For data set [4], the target named is T2, porcine pancreatic α-amylase (Sus scrofa, UniProt P00690).
T2 construct: purchased Alfa Aesar, Sigma-Aldrich, and Frutarom (UK)
T2 sequence (P00690 16-511): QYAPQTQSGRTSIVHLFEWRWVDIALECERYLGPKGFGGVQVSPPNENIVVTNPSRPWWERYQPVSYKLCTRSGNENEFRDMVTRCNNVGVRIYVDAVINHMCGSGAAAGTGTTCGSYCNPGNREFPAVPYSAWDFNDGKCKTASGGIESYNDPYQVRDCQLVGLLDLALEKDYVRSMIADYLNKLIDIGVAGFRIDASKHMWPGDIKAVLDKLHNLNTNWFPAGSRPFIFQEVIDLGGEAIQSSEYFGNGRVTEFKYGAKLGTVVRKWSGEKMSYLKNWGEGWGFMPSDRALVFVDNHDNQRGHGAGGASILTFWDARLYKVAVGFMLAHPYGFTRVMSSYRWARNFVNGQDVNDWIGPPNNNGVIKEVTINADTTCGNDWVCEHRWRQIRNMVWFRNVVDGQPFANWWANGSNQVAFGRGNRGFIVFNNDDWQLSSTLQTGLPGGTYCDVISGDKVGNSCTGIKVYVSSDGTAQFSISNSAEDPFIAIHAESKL
The experiment in a line: α-Amylase inhibitory assay. Type of data set: biochemical.
Procedure: A 5 mg of each fraction was dissolved in a few milliliters of 10% DMSO, and then further dissolved up to 100 ml in 0.02 M Na2HPO4/NaH2PO4, 0.006 M NaCl, pH 6.9 to give finally stock solutions with concentrations of 1000 μg/ml. From these, the following dilutions were prepared of 10, 50, 70, 100, and 500 μg/ml, using 10% DMSO as the diluent. A 0.2 ml volume of 2 units/ml porcine pancreatic α-amylase was mixed with 0.2 ml compounds dilution and was incubated for 10 min at 30 °C. After incubation, 0.2 ml of a freshly prepared 1% starch solution in water was added, and the tubes were then incubated for at least three more minutes. At this point, the reaction was stopped by the addition of 0.2 ml 3,5-dinitro salicylic acid (DNSA) color reagent and was diluted with 5 ml of distilled water, before being heated at 90 °C for 10 min in a water bath. The mixture was then cooled to room temperature, and the absorbance was measured at 540 nm. The blank control was prepared using the same quantities described above, but replacing the compound solution with 0.2 ml buffer.

Data set [5] relates to total antioxidant capacity (TAC) in the blood of mice. The experiment in a line: In vivo total antioxidant capacity (TAC) in mice, Abcam ab65329 kit. The conditions noted are these: for TAC (Trolox equivalents): plasma. The procedure: For this purpose, the TAC was determined using a commercially available assay kit (Abcam ab65329), in four groups of mice: 2a treated (5 mg/kg over 6 days, n = 5), 2a treated (10 mg/kg over 6 days, n = 5), quercetin treated (positive control; 10 mg/kg over 6 days, n = 5), and vehicle-treated (negative control; n = 5). All mice were sacrificed seven days after the treatment (or the first administration of the vehicle).
The absorbance values of the used kit were plotted against a serial concentration of Trolox standards in the concentration range of (4–20 nM). […] The generated regression line equation was utilized to calculate the Trolox equivalent total antioxidant activity of the injected compound and positive quercetin control of the experimental mice. The average results of the total antioxidant activity of ten replicates of plasma samples were reported. […] The summary of the results is shown in (Fig. 6).
Twenty mice were divided into four groups randomly, with five mice in each. The first group was administered with our novel compound 2a (5 mg/kg), the second group with the same compound (10 mg/kg), the third group with Quercetin (10 mg/kg) as a positive control, and the fourth group with normal saline (20%) and propylene glycol 80% as a negative control group.
To test the TAC of the novel compound, four groups of mice were injected intraperitoneal (i.p.) and employed with vehicle (80% polyethylene glycol (PG) and 20% normal saline (NS) for 6 days. The first and second groups were injected with 5 and 10 mg/kg/day of 2a compound dissolved in the same vehicle, respectively. The third group was injected with a known antioxidant agent positive control (Quercetin), with 10 mg/kg/day, and the last group was the negative control group (80% polyethylene glycol (PG) and 20% Normal saline (NS). All mice were anesthetized with ketamine (60 mg/kg) and xylazine (5 mg/kg) and sacrificed 24 h after the final injection. Then, the mouse blood sample was collected and centrifuged to collect serum. For long-term stability, serum was frozen at − 20 °C[27],[28].
All mice were sacrificed after seven days of treatment by placing each mouse in a plexiglass chamber with 5% of isoflurane anesthetic drug, for 5 min, and then when the mouse was fully sedated, they were sacrificed by rapid decapitation. Trunk blood was collected in EDTA-coated tubes for use in the kit assay[29],[30].
Using DPPH assay that basis on measures the total antioxidant capacity (TAC) of compounds that can transfer hydrogen atoms. […] Antioxidant compounds, which can transfer an electron to DMPD• + , cause a discoloration of the solution. […] The reduced Cu + ion is chelated with a colorimetric probe giving a broad absorbance peak around 570 nm, proportional to the total antioxidant capacity. […]

The nature of data set [6]: Water solubility. Type of data set: physicochemical. The conditions noted are these: can be dissolved with propylene glycol.
On the set-up of data set [7]: method as in PMID 33763478. The conditions noted are these: similar isoxazole series, earlier report; cited from earlier work.

By IC50 is commonly meant the concentration at which inhibition is half-maximal. High values mean a need for much substance, low ones inhibition by little substance. Consider `Cc1onc(-c2ccc(F)cc2)c1C(=O)Nc1ccc(C(C)(C)C)cc1` [2a, N-(4-(tert-butyl)phenyl)-3-(4-fluorophenyl)-5-methylisoxazole-4-carboxamide], for which, in data set [1], the “IC50 against Hep3B” value is 9.58 µg/mL (≈ 27.2 µM). The IC50 was greater than 1140 µM in data set [2] and greater than 1420 µM in data set [4] (starch substrate, DNSA, 540 nm, highest concentration 500 µg/ml). The “IC50 DPPH” value in data set [3] came to 0.45 ± 0.21 µg/mL (≈ 1.28 µM). Also, the “TAC (Trolox equivalents)” value is on record as 640.2 nmol L–1 in data set [5] (5 mg/kg i.p. over 6 days) and 682.9 nmol L–1 in data set [5] (10 mg/kg i.p. over 6 days). In addition, in data set [5] (i.p.), the “TAC relative to mice treated with the positive control Quercetin” value is on record as “two folds greater”. Further, in data set [6], the water solubility entry is on record as “low water solubility”.

For orientation: inhibition means how much of the control response was suppressed. `C[C@H]1O[C@H](O[C@H]2[C@H](O)[C@@H](O)[C@@H](O[C@H]3[C@H](O)[C@@H](O)C(O)O[C@@H]3CO)O[C@@H]2CO)[C@H](O)[C@@H](O)[C@@H]1N[C@H]1C=C(CO)[C@@H](O)[C@H](O)[C@H]1O` (stereo partly drawn) [Acarbose, reference compound]: in data set [4] (read-out: percentage of inhibition of α-amylase), the inhibition at 500 µg/mL is 72.5%.

Consider `Cc1onc(-c2ccccc2Cl)c1C(=O)Nc1ccc(C(C)(C)C)cc1` [N-(4-(tert-butyl)phenyl)-3-(2-chlorophenyl)-5-methylisoxazole-4-carboxamide], for which the “IC50 DPPH” value in data set [7] was 7.8 µg/mL (≈ 21.1 µM).

Turning to `O=c1c(O)c(-c2ccc(O)c(O)c2)oc2cc(O)cc(O)c12` [Quercetin, reference compound], the “TAC (Trolox equivalents)” value in data set [5] (10 mg/kg i.p. over 6 days) turned out to be 221.0 nmol L–1.

Consider `Cc1c(C)c2c(c(C)c1O)CCC(C)(C(=O)O)O2` (stereo not drawn) [Trolox, reference compound], for which, in data set [3], the “IC50 DPPH” value is 3.10 ± 0.92^a µg/ml.
